From US12516038B2, “Inhibitors of antigen presentation by HLA-DR” (Janssen Pharmaceutica NV, priority 2020, dated 2026)

Tests used:
HLA-DRB1*0401 = HLA-DRB1*0401 (Homo sapiens (Human), UniProt P01903+P01911, A100K/A169T/DEL228-266/F76Y/I96L/K127E/L162R/M171V/N62H/P40V/Q125Y/R42H/S133A/S149N/S66Y/V115G/V209L/W38E); assay: HLA-DR4 HTRF assay; format: binding; conditions: inhibition of loading of Alexa Fluor 647-labeled Cit-CII peptide onto HLA-DR4 (CLIP cleaved)
Summary of the method: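 HLA-DRB1*04:01 construct (α/β fused to human Fc, CLIP pre-cleaved by HRV3C overnight at 4° C) at 3 nM was preincubated 45 min with compound and 1 nM anti-Fc-Tb donor, then 40 nM Alexa647-Cit-CII1236-1249 peptide added. After 90 min at 37° C, the 665/620 nm HTRF ratio gave % inhibition; IC50 by nonlinear regression.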

[1] = tested on: HLA-DR4 restricted mouse T cell hybridoma line (DR4.CII.36.8) with HLA-DRB1*04:01-expressing Boleth cells; assay: HLA-DR4-restricted peptide-specific T cell-based assay (hybridoma assay); conditions: 6 h, inhibition of IL-2 production, CII259-273 peptide presented by Boleth cells
Summary of the method: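 IC50 values derive from 4-parameter logistic fits of IL-2 AlphaLISA signal over 8-point duplicate titrations. Compound and HLA-DRB1*04:01 Boleth APCs were preincubated 1 h, 37° C., before adding CII259-273-restricted DR4.CII.36.8 hybridoma cells with peptide for 6 h at 37° C., in DMEM/1% FCS.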

[2] = tested on: human peripheral blood CD4+ helper T cells; assay: Pan-CD4+ T cell activation (off-target assay); format: cell-based; conditions: Homo sapiens, T-cell, 24 h, anti-CD3/anti-CD28 stimulation, IL-2 production by ELISA
Summary of the method: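 IL-2 secretion was measured by ELISA of culture supernatant after 24 h of TCR stimulation. Stimulation used anti-CD3 coated at 1 μg/mL and 1 μg/mL soluble anti-CD28 on human blood CD4+ helper T cells without HLA-DR-expressing APCs, with compound or vehicle present.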

Structure (SMILES) | IC50 (HLA-DRB1*0401) | IC50 ([1]; Mus musculus, T-cell) | IC50 [2] | IC50 [1]
COc1cnccc1[C@@H](Oc1ccc2c(c1)OCCC2=O)c1ccc(C(N)=O)cc1 (single isomer, unassigned) [Example 23b, (*S)-4-((3-methoxypyridin-4-yl)((4-oxochroman-7-yl)oxy)methyl)benzamide] | 680 nM | 5000 nM | > 15000 nM | –
CC[C@@H]1CC(=O)c2ccc(O[C@@H](c3ccncc3)c3ccc(C(N)=O)cc3)cc2O1 (single isomer, unassigned) [Example 40a, 4-((*R)—(((*R)-2-ethyl-4-oxochroman-7-yl)oxy)(pyridin-4-yl)methyl)benzamide] | 1500 nM | 760 nM | 15000 nM | –
CNC(=O)c1ccc([C@H](Oc2ccc3c(c2)OCCC3=O)c2ccncc2)cc1 (single isomer, unassigned) [Example 34b, (*S)—N-methyl-4-(((4-oxochroman-7-yl)oxy)(pyridin-4-yl)methyl)benzamide] | 690 nM | > 15000 nM | > 15000 nM | –
Cc1c(O[C@@H](c2ccncc2)c2ccc(C(N)=O)cc2)ccc2c1OCCC2=O (single isomer, unassigned) [Example 48a, (*R)-4-(((8-methyl-4-oxochroman-7-yl)oxy)(pyridin-4-yl)methyl)benzamide] | 680 nM | – | 9900 nM | 140 nM
COc1ccc(C(Oc2ccc3c(c2)OCCC3=O)c2ccncc2)cc1 (racemic) [Example 12, (R,S)-7-((4-Methoxyphenyl)(pyridin-4-yl)methoxy)chroman-4-one] | 1200 nM | 1600 nM | > 15000 nM | –
NC(=O)c1ccc(C(Oc2ccc3c(c2)OCCC3=O)c2ccncc2)cc1 (racemic) [Example 11, (R,S)-4-(((4-Oxochroman-7-yl)oxy)(pyridin-4-yl)methyl)benzamide] | 650 nM | 1200 nM | > 15000 nM | –
Cc1c(O[C@H](c2ccc(C(N)=O)cc2)c2ccccc2C#N)ccc2c1OCCC2=O (single isomer, unassigned) [Example 61a, (*R)-4-((2-cyanophenyl)((8-methyl-4-oxochroman-7-yl)oxy)methyl)benzamide] | 990 nM | 4600 nM | 2700 nM | –
Cc1c(O[C@H](c2ccccc2)c2ccc(C(N)=O)cc2)ccc2c1OCCC2=O (single isomer, unassigned) [Example 69a, (*R)-4-(((8-Methyl-4-oxochroman-7-yl)oxy)(phenyl)methyl)benzamide] | 2100 nM | 2200 nM | 6100 nM | –
NC(=O)c1ccc([C@H](Oc2cc3c(cc2-c2ccccc2)C(=O)CCO3)c2ccncc2)cc1 (single isomer, unassigned) [Example 54b, (*S)-4-(((4-oxo-6-phenylchroman-7-yl)oxy)(pyridin-4-yl)methyl)benzamide] | 870 nM | 4300 nM | 15000 nM | –
NC(=O)c1ccc([C@H](Oc2ccc3c(c2)OCCC3=O)c2ccncc2C(F)(F)F)cc1 (single isomer, unassigned) [Example 19b, (*S)-4-(((4-oxochroman-7-yl)oxy)(3-(trifluoromethyl)pyridin-4-yl)methyl)benzamide] | 1200 nM | 7600 nM | 4700 nM | –
CCc1cc2c(cc1O[C@@H](c1ccncc1)c1ccc(C(N)=O)cc1)OCCC2=O (single isomer, unassigned) [Example 74a, (*R)-4-(((6-ethyl-4-oxochroman-7-yl)oxy)(pyridin-4-yl)methyl)benzamide] | 550 nM | 120 nM | 2200 nM | –
CC[C@@H]1CC(=O)c2ccc(OCc3ccnc(C)c3)cc2O1 (single isomer, unassigned) [Example 118a, (*R)-2-ethyl-7-((2-methylpyridin-4-yl)methoxy)chroman-4-one] | 960 nM | 7500 nM | > 15000 nM | –
O=C1CCOc2cc(OC(c3ccccc3)c3cccnc3)ccc21 (racemic) [Example 115, (R,S)-7-(Phenyl(pyridin-3-yl)methoxy)chroman-4-one] | 5000 nM | 12000 nM | 15000 nM | –
NC(=O)c1ccc([C@@H](Oc2ccc3c(c2-c2ccccc2)OCCC3=O)c2ccncc2)cc1 (single isomer, unassigned) [Example 53a, (*R)-4-(((4-oxo-8-phenylchroman-7-yl)oxy)(pyridin-4-yl)methyl)benzamide] | 800 nM | 740 nM | 2100 nM | –
COc1cc([C@@H](Oc2ccc3c(c2)OCCC3=O)c2ccc(C(N)=O)cc2)ccn1 (single isomer, unassigned) [Example 24b, (*S)-4-((2-methoxypyridin-4-yl)((4-oxochroman-7-yl)oxy)methyl)benzamide] | 1200 nM | 2700 nM | 4700 nM | –
CC[C@@H]1COc2cc(O[C@@H](c3ccncc3)c3ccc(C(N)=O)cc3)ccc2C1=O (single isomer, unassigned) [Example 46a, 4-((*R)—(((*R)-3-ethyl-4-oxochroman-7-yl)oxy)(pyridin-4-yl)methyl)benzamide] | 970 nM | 1500 nM | > 15000 nM | –
Cc1c(O[C@@H](c2ccccc2)c2ccc(C(=O)O)cc2)ccc2c1OCCC2=O (single isomer, unassigned) [Example 70b, (*S)-4-(((8-methyl-4-oxochroman-7-yl)oxy)(phenyl)methyl)benzoic acid] | 1500 nM | 4800 nM | 9900 nM | –
NC(=O)c1ccc([C@H](Oc2ccc3c(c2)O[C@@H](c2ccccc2)CC3=O)c2ccncc2)cc1 (single isomer, unassigned) [Example 42a, 4-((*S)—(((*R)-4-oxo-2-phenylchroman-7-yl)oxy)(pyridin-4-yl)methyl)benzamide] | 3800 nM | 11000 nM | > 15000 nM | –
COc1cc([C@H](Oc2ccc3c(c2)OCCC3=O)c2ccc(C(N)=O)cc2)ccn1 (single isomer, unassigned) [Example 24a, (*R)-4-((2-methoxypyridin-4-yl)((4-oxochroman-7-yl)oxy)methyl)benzamide] | 1400 nM | 5100 nM | > 15000 nM | –
Cc1cc2c(cc1O[C@H](c1ccncc1)c1ccc(C(N)=O)cc1)OCCC2=O (single isomer, unassigned) [Example 49b, (*S)-4-(((6-Methyl-4-oxochroman-7-yl)oxy)(pyridin-4-yl)methyl)benzamide] | 1000 nM | 3000 nM | 15000 nM | –
Cc1c(O[C@H](c2ccncc2)c2ccc(C(N)=O)cc2OC(C)C)ccc2c1OCCC2=O (single isomer, unassigned) [Example 84a, (*R)-3-isopropoxy-4-(((8-methyl-4-oxochroman-7-yl)oxy)(pyridin-4-yl)methyl)benzamide] | 1200 nM | 790 nM | 470 nM | –
CC[C@H]1CC(=O)c2ccc(O[C@@H](c3ccncc3)c3ccc(C(N)=O)cc3)cc2O1 (single isomer, unassigned) [Example 40b, 4-((*R)—(((*S)-2-ethyl-4-oxochroman-7-yl)oxy)(pyridin-4-yl)methyl)benzamide] | 1300 nM | 1000 nM | 15000 nM | –
Cc1c(O[C@H](c2ccc(C#N)cc2)c2ccc(C(N)=O)cc2)ccc2c1OCCC2=O (single isomer, unassigned) [Example 59a, (*R)-4-((4-cyanophenyl)((8-methyl-4-oxochroman-7-yl)oxy)methyl)benzamide] | 1200 nM | 3200 nM | 4700 nM | –
NC(=O)c1cccc([C@@H](Oc2ccc3c(c2)OCCC3=O)c2ccncc2)c1 (single isomer, unassigned) [Example 9a, (*R)-3-(((4-oxochroman-7-yl)oxy)(pyridin-4-yl)methyl)benzamide] | 920 nM | 6300 nM | 4700 nM | –
Cc1c(O[C@@H](c2ccncc2)c2ccc(C(N)=O)cc2)c(F)cc2c1OCCC2=O (single isomer, unassigned) [Example 58a, (*R)-4-(((6-fluoro-8-methyl-4-oxochroman-7-yl)oxy)(pyridin-4-yl)methyl)benzamide] | 330 nM | 180 nM | 5300 nM | –
CC[C@H]1COc2cc(O[C@@H](c3ccncc3)c3ccc(C(N)=O)cc3)ccc2C1=O (single isomer, unassigned) [Example 46b, 4-((*R)—(((*S)-3-ethyl-4-oxochroman-7-yl)oxy)(pyridin-4-yl)methyl)benzamide] | 1300 nM | 170 nM | 5000 nM | –
C[C@@H]1COc2cc(O[C@@H](c3ccncc3)c3ccc(C(N)=O)cc3)ccc2C1=O (single isomer, unassigned) [Example 44b, 4-((*R)—(((*R)-3-Methyl-4-oxochroman-7-yl)oxy)(pyridin-4-yl)methyl)benzamide] | 1100 nM | 2300 nM | > 15000 nM | –
